The subject of test [1] is SK-OV-3 human ovarian cancer cells. The test is described as follows: WST-8 cell proliferation assay, SK-OV-3. Particulars: 72 hours, read-out: SKOV-3 IC50. The format is cell-based. The procedure: (§1) The effects of the compounds provided by the present invention on the proliferation of different cancer cell lines were tested using the WST-8 assay kit. This method is based on the reduction of WST-8 by dehydrogenase in live cells to form a highly water-soluble yellow Formazan dye. Cells were seeded in a 96-well plate and cultured with the test compounds at 37° C. under 5% CO2 for 72 hours. Afterwards, 10% (v/v) WST-8 was added, and the samples were incubated for an additional 2-3 hours. The absorbance of the samples was measured at 450 nm using a Tecan microplate reader, and the concentration of the compound that inhibited 50% of cell proliferation (IC50, nM) was calculated. The activity of the compounds provided by the present invention was determined in three cancer cell lines: MDA-MB-231 human breast cancer cells, SK-OV-3 human ovarian cancer cells, and PANC1 human pancreatic cancer.
For orientation: Tetrazolium assays rely on reduction of a dye to a coloured formazan, in cell work by metabolically active cells.

The test system of test [2] is MDA-MB-231 cancer cells. The test is described as follows: Inhibitor-induced apoptosis, flow cytometry with Annexin V and propidium iodide. It is filed as cell-based, human. Particulars: 3 hours. The procedure: After treating the cells with 10 nM and 100 nM concentrations of the compounds for 3 hours, the induction of apoptosis was analyzed using flow cytometry with Annexin V and propidium iodide staining.
(In general: In flow cytometry, cells or beads pass a laser one at a time.)

Test [3] concerns the target BIR3 domain of human cIAP2 (residues 236-342) (Homo sapiens (Human), UniProt Q13489). Kind of test: Fluorescence polarization competitive binding to cIAP2 BIR3. Particulars: FP, peptide probe 5 nM, cIAP2 BIR3 10 nM, 1 hour room temperature. On the procedure:
(§2) The binding affinity of the compounds provided by the present invention to IAP proteins was determined using a fluorescence polarization method (Nikolovska-Colesak et al, Anal. Biochem. 2004, 332:261-73). The recombinant BIR3 domains of human XIAP (residues 238-358), human cIAP1 (residues 255-364) and human cIAP2 (residues 236-342) fusing GST-tags were expressed in E. coli and purified using glutathione agarose 4B affinity chromatography and gel filtration chromatography. A 5-Fam fluorescently modified peptide probe (AbuRPFK(5-Fam)-NH2) was used to test the competitive binding ability of the compounds to the BIR3 domains of XIAP, cIAP1 and cIAP2. The peptide probe (5 nM), XIAP BIR3 (30 nM) or cIAP1 BIR3 (5 nM) or cIAP2 BIR3 (10 nM), and serial diluted compounds were mixed in a test buffer (100 mM potassium phosphate pH 7.5, 100 μg/ml bovine gamma globulin, 0.02% sodium azide, and 1 mM DTT). After incubating the samples at room temperature for 1 hour, the fluorescence polarization values were read using a Tecan microplate reader (FP excitation wavelength 485 nm, […] wavelength 530 nm). The IC50 value was obtained by fitting the curve using nonlinear least square regression with the Graphpad Prism software. The inhibition constant Ki, values were calculated using the Equation Ki, [I]50/([L]50/Kd+[P]0/Kd+1).
In general terms: Polarisation of emitted light reports the rotation of a fluorescent probe.

Test [4] relates to PANC1 human pancreatic cancer. Kind of test: WST-8 cell proliferation assay, PANC1. Particulars: PANC-1, 72 hours. It is filed as cell-based. The procedure:
as §1

Test [5] deals with BIR3 domain of human XIAP (residues 238-358) (Homo sapiens (Human), UniProt P98170). The test is described as follows: Fluorescence polarization competitive binding to XIAP BIR3. The following applies: FP, peptide probe 5 nM, XIAP BIR3 30 nM, 1 hour room temperature. On the procedure: as §2
Test [6] relates to MDA-MB-231 human breast cancer cells. The test is described as follows: WST-8 cell proliferation assay, MDA-MB-231. The format is cell-based. The following applies: 72 hours. On the procedure: as §1
Test [7] deals with BIR3 domain of human cIAP1 (residues 255-364) (Homo sapiens (Human), UniProt Q13490). The test is described as follows: Fluorescence polarization competitive binding to cIAP1 BIR3. The following applies: FP, peptide probe 5 nM, cIAP1 BIR3 5 nM, 1 hour room temperature. On the procedure: as §2
Sequence of BIR3 domain of human cIAP1 (residues 255-364) (Q13490 255-364): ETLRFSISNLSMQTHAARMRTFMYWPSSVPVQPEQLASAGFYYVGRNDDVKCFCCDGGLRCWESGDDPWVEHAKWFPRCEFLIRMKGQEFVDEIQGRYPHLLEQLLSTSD

Sequence of BIR3 domain of human cIAP2 (residues 236-342) (Q13489 236-342): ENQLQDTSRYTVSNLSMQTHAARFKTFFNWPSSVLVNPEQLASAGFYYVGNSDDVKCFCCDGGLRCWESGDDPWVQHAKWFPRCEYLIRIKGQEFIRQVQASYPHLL
Sequence of BIR3 domain of human XIAP (residues 238-358) (P98170 238-358): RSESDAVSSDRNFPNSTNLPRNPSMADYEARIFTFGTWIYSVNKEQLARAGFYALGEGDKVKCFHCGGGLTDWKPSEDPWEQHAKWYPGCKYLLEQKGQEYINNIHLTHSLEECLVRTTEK

As for `CN[C@@H](C)C(=O)N[C@H](C(=O)N1CCc2cc(=O)n(Cc3ccc(F)cc3F)cc21)C1CCCCC1` [Compound I-2-4], the IC50 is 13 nM in test [1], 75 nM in test [4] and 8 nM in test [6]. The figures for the “Proportion of apoptotic cells” value in test [2] (Drug concentration 10 nM) and in test [2] (Drug concentration 100 nM) were 32% and 45%, respectively. Further, the Ki in test [3] is 3.2 nM; in test [5], 73.2 nM; in test [7], 1.3 nM.

Consider `[2H]C([2H])([2H])N[C@@H](C)C(=O)N[C@H](C(=O)N1CC(C)(C)c2cc(=O)n(Cc3ccc(F)cc3F)cc21)C(C)(C)C` [Compound I-2-28], for which the IC50 in test [1] came out at 23 nM; in test [4], 124 nM; in test [6], 20 nM. Besides, the “Proportion of apoptotic cells” value is reported as 29% in test [2] (Drug concentration 10 nM) and 47% in test [2] (Drug concentration 100 nM). Also, the Ki in test [3] came to 6.7 nM; in test [5] it was 185 nM; in test [7], 1.9 nM.

`CN[C@@H](C)C(=O)N[C@H](C(=O)N1CCc2c1cc(Cc1ccc(F)cc1)c(=O)n2C)C(C)(C)C` [Compound I-3-2]: the 50% inhibitory concentration (IC50) in test [1] was 2 nM; in test [4], 43 nM; in test [6] it was 2 nM. Moreover, the “Proportion of apoptotic cells” value in test [2] (Drug concentration 10 nM) came to 38%; in test [2] (Drug concentration 100 nM), 52%. Moreover, the Ki was 2.2 nM in test [3], 18.4 nM in test [5] and 1.2 nM in test [7].

As to `CN[C@@H](C)C(=O)N[C@H](C(=O)N1CCc2cc(=O)n(Cc3ccc(F)cc3F)cc21)C(C)(C)C` [Compound I-2-20], the figures for the IC50 in test [1], in test [4] and in test [6] were 1 nM, 33 nM and 3 nM, respectively. Further, the “Proportion of apoptotic cells” value was 39% in test [2] (Drug concentration 10 nM) and 53% in test [2] (Drug concentration 100 nM). Further, the Ki in test [3] came out at 1.8 nM; in test [5] it was 21.5 nM; in test [7] it was 1 nM.

Consider `CN[C@@H](C)C(=O)N[C@H](C(=O)N1CC(C)(C)c2cc(=O)n(Cc3ccc(F)cc3O)cc21)C(C)(C)C` [Compound I-2-32], for which the IC50 in test [1] came to 29 nM; in test [4] it was 189 nM; in test [6] it was 28 nM. The “Proportion of apoptotic cells” value in test [2] (Drug concentration 10 nM) worked out at 21%; in test [2] (Drug concentration 100 nM), 43%. The Ki in test [3] was 10 nM; in test [5] it was 343 nM; in test [7], 2.2 nM.

For `CN[C@@H](C)C(=O)N[C@H](C(=O)N1CCc2c1cc(Cc1ccc(F)cc1F)c(=O)n2CC(F)(F)F)C(C)(C)C` [Compound I-3-8], the inhibition constant (Ki) in test [3] worked out at 2.1 nM; in test [5], 7.1 nM; in test [7], 1.3 nM.

As to `CN[C@@H](C)C(=O)N[C@H](C(=O)N1CC(C)(C)c2cc(=O)n(Cc3ccc(F)cc3F)cc21)C(C)(C)C` [Compound I-2-26], the IC50 in test [1] was determined as 7 nM; in test [4] it was 89 nM; in test [6], 21 nM. Also, the “Proportion of apoptotic cells” value in test [2] (Drug concentration 10 nM) is reported as 32%; in test [2] (Drug concentration 100 nM) it was 47%. The Ki in test [3] came to 6.9 nM; in test [5], 70.9 nM; in test [7], 1.4 nM.

Regarding `[2H]C([2H])([2H])N[C@@H](C)C(=O)N[C@H](C(=O)N1CCc2cc(=O)n(Cc3ccc(F)cc3F)cc21)C(C)(C)C` [Compound I-2-35], the Ki is 2.6 nM in test [3], 33.4 nM in test [5] and 1.2 nM in test [7].

Take `C[C@H](N)C(=O)N[C@H](C(=O)N1CCc2cc(=O)n(Cc3ccc(F)cc3F)cc21)C(C)(C)C` [Compound I-2-34]: the inhibition constant Ki stood at 1.5 nM in test [3], 24.1 nM in test [5] and 1.1 nM in test [7].

In the case of `[2H]C([2H])([2H])N[C@@H](C)C(=O)N[C@H](C(=O)N1CCc2cc(=O)n(Cc3ccc(F)cc3F)cc21)C(C)(C)C` [Compound I-2-22], the IC50 in test [1] was determined as 2 nM; in test [4], 34 nM; in test [6], 3 nM. In addition, the “Proportion of apoptotic cells” value in test [2] (Drug concentration 10 nM) worked out at 38%; in test [2] (Drug concentration 100 nM), 52%. Further, the Ki in test [3] is 1.5 nM; in test [5], 21 nM; in test [7] it was 0.8 nM.

Consider `CN[C@@H](C)C(=O)N[C@H](C(=O)N1CCc2cc(=O)n(Cc3ccc(F)cc3)cc21)C(C)(C)C` [Compound I-2-11], for which the IC50 in test [1] worked out at 4 nM; in test [4], 38 nM; in test [6], 5 nM. The “Proportion of apoptotic cells” value in test [2] (Drug concentration 10 nM) amounted to 35%; in test [2] (Drug concentration 100 nM), 48%. The inhibition constant (Ki) was found to be 1.7 nM in test [3], 31.4 nM in test [5] and 0.7 nM in test [7].

Consider `[2H]C([2H])([2H])N[C@@H](C)C(=O)N[C@H](C(=O)N1CCc2cc(=O)n(Cc3ccc(F)cc3)cc21)C1CCCCC1` [Compound I-2-15], for which the figures for the IC50 in test [1], in test [4] and in test [6] were 12 nM, 64 nM and 9 nM, respectively. The Ki in test [3] is 4 nM; in test [5], 76.9 nM; in test [7], 1 nM.

For `CN[C@@H](C)C(=O)N[C@H](C(=O)N1CCc2[nH]c(=O)c(Cc3ccc(F)cc3)cc21)C1CCCCC1` [Compound I-4-1, (S)-N-((S)-1-cyclohexyl-2-(6-(4-fluorobenzyl)-5-oxo-2,3,4,5-tetrahydro-1H-pyrrolo[3,2-b]pyridine-1-yl)-2-oxyethyl)-2-(methylamino)propanamide], the values for the IC50 in test [1], in test [4] and in test [6] were 1 nM, 53 nM and 6 nM, respectively. In addition, the “Proportion of apoptotic cells” value in test [2] (Drug concentration 10 nM) turned out to be 36%; in test [2] (Drug concentration 100 nM), 49%. The results for the Ki in test [3], in test [5] and in test [7] were 2.7 nM, 19.9 nM and 1.3 nM, respectively.

In the case of `CN[C@@H](C)C(=O)N[C@H](C(=O)N1CC(C)(C)c2cc(=O)n(Cc3ccc(F)cc3)cc21)C(C)(C)C` [Compound I-2-33], the IC50 in test [1] is 27 nM; in test [4], 192 nM; in test [6], 24 nM. In addition, the “Proportion of apoptotic cells” value is listed as 23% in test [2] (Drug concentration 10 nM) and 45% in test [2] (Drug concentration 100 nM). The Ki is 7.9 nM in test [3], 288 nM in test [5] and 1.9 nM in test [7].

Turning to `[2H]C([2H])([2H])N[C@@H](C)C(=O)N[C@H](C(=O)N1CC(C)(C)c2cc(=O)n(Cc3ccc(F)cc3)cc21)C(C)(C)C` [Compound I-2-29], the figures for the IC50 in test [1], in test [4] and in test [6] were 32 nM, 165 nM and 29 nM, respectively. Moreover, the entries for the “Proportion of apoptotic cells” value in test [2] (Drug concentration 10 nM) and in test [2] (Drug concentration 100 nM) were 20% and 42%, respectively. For the same compound, the Ki was determined as 12.7 nM in test [3], 568 nM in test [5] and 3 nM in test [7].

For the compound `CN[C@@H](C)C(=O)N[C@H](C(=O)N1CC(C)(C)c2c1cc(Cc1ccc(F)cc1F)c(=O)n2C)C(C)(C)C` [Compound I-3-7], the Ki turned out to be 5.2 nM in test [3], 45.2 nM in test [5] and 1.6 nM in test [7].

`CCn1c2c(cc(Cc3ccc(F)cc3F)c1=O)N(C(=O)[C@@H](NC(=O)[C@H](C)NC)C(C)(C)C)CC2` [Compound I-3-6]: the Ki was found to be 1.6 nM in test [3], 12.3 nM in test [5] and 0.8 nM in test [7].

Regarding `CN[C@@H](C)C(=O)N[C@H](C(=O)N1CCc2[nH]c(=O)c(Cc3ccc(F)cc3)cc21)C(C)(C)C` [Compound I-4-3], the Ki in test [3] was 1.9 nM; in test [5], 8.2 nM; in test [7], 1 nM.

With `CN[C@@H](C)C(=O)N[C@H]1CN(C(=O)CC(C)C)CC[C@H]2CC[C@@H](C(=O)NC(c3ccccc3)c3ccccc3)N2C1=O` [SM-406, reference compound], the results for the IC50 in test [1], in test [4] and in test [6] were 40 nM, 241 nM and 33 nM, respectively. For the same compound, the “Proportion of apoptotic cells” value worked out at 6% in test [2] (Drug concentration 10 nM) and 34% in test [2] (Drug concentration 100 nM). The values for the Ki in test [3] and in test [5] were 5.8 nM and 25.2 nM, respectively.

A word on the IC50: it is the midpoint of a concentration-inhibition curve. As a reminder, the Ki is a dissociation constant, usually derived from enzyme kinetics or from competition with a known ligand. Lower therefore signals higher affinity.

The record behind these values is patent publication US20250002493A1, “PYRIDONE COMPOUND AND PREPARATION METHOD THEREFOR, PHARMACEUTICAL COMPOSITION AND USE” (NANJING CHINA-AUSTRALIA INSTITUTE OF TRANSLATIONAL MEDICINE …, priority 2022, published 2025).
